Test results reported in PubChem BioAssay AID248 (DTP/NCI, 2004).
Values joined by “and” are separate entries in the source; they are usually repeats but may differ in a detail not shown here. Equal entries are not always repeated. Toxic doses and inconclusive results are not listed. Cut-off read from the data, not from the text of the source: active = T/C of 150% or more; inactive = T/C below 125%.

Test system: L1210 leukemia ip in BDF1 mice, survival T/C
Experiment: NCI In Vivo Anticancer Drug Screen. Data for tumor model L1210 Leukemia (intraperitoneal) in B6D2F1 (BDF1) mice
Conditions: endpoint: mean survival time, higher = longer survival
In short: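 Survival endpoint. Drug-treated group vs vehicle group, expressed as T divided by C. Tumor passaged by transplantation.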

[1] = dose: 50.0 mg/kg/injection, schedule: Q01DX009 (ip), vehicle: saline
[2] = dose: 100.0 mg/kg/injection, schedule: Q04DX003 (ip), vehicle: Klucel (hydroxypropylcellulose) (HPC)
[3] = dose: 200.0 mg/kg/injection, schedule: Q04DX003 (ip), vehicle: Klucel (hydroxypropylcellulose) (HPC)
[4] = dose: 400.0 mg/kg/injection, schedule: Q04DX003 (ip), vehicle: Klucel (hydroxypropylcellulose) (HPC)
[5] = dose: 25.0 mg/kg/injection, schedule: Q01DX009 (ip), vehicle: saline
[6] = dose: 100.0 mg/kg/injection, schedule: Q04DX003 (ip), vehicle: saline
[7] = dose: 200.0 mg/kg/injection, schedule: Q04DX003 (ip), vehicle: saline
[8] = dose: 400.0 mg/kg/injection, schedule: Q04DX003 (ip), vehicle: saline
[9] = dose: 100.0 mg/kg/injection, schedule: Q01DX009 (ip), vehicle: Klucel (hydroxypropylcellulose) (HPC)
[10] = dose: 200.0 mg/kg/injection, schedule: Q01DX009 (ip), vehicle: Klucel (hydroxypropylcellulose) (HPC)
[11] = dose: 100.0 mg/kg/injection, schedule: Q01DX009 (ip), vehicle: saline with Tween-80
[12] = dose: 100.0 mg/kg/injection, schedule: Q04DX003 (ip), vehicle: saline with Tween-80
[13] = dose: 200.0 mg/kg/injection, schedule: Q01DX009 (ip), vehicle: saline with Tween-80
[14] = dose: 200.0 mg/kg/injection, schedule: Q04DX003 (ip), vehicle: saline with Tween-80
[15] = dose: 400.0 mg/kg/injection, schedule: Q01DX009 (ip), vehicle: saline with Tween-80
[16] = dose: 400.0 mg/kg/injection, schedule: Q04DX003 (ip), vehicle: saline with Tween-80

Measured: T/C

CCCCOP(=O)(Cc1ccc(Cl)c(Cl)c1)OCCCC
inactive: dose: 100.0 mg/kg/injection, schedule: Q04DX002 (sc), vehicle: olive oil, sesame oil, peanut oil 98 % of control | dose: 200.0 mg/kg/injection, schedule: Q04DX002 (sc), vehicle: olive oil, sesame oil, peanut oil 102 % of control | dose: 400.0 mg/kg/injection, schedule: Q04DX002 (sc), vehicle: olive oil, sesame oil, peanut oil 98 % of control

COc1cc2c(c(OC)c1OC)-c1ccc(OC)c(=O)cc1[C@@H](NC=O)CC2
inactive: dose: 0.35 mg/kg/injection, schedule: Q01DX015 (ip), vehicle: carboxymethylcellulose (CMC) 118 % of control | dose: 0.5 mg/kg/injection, schedule: Q01DX009 (ip), vehicle: Klucel (hydroxypropylcellulose) (HPC) 122 % of control | dose: 0.7 mg/kg/injection, schedule: Q01DX015 (ip), vehicle: carboxymethylcellulose (CMC) 112 % of control | dose: 3.0 mg/kg/injection, schedule: Q01DX015 (ip), vehicle: carboxymethylcellulose (CMC) 90 % of control

Cn1c(=O)c2c(nc(C3CC=CCC3)n2C)n(C)c1=O (stereo not given)
inactive: dose: 50.0 mg/kg/injection, schedule: Q01DX001 (ip), vehicle: other 98 % of control

CCCCNC(=O)Nc1cc(Cl)c(Cl)cc1C
inactive: dose: 100.0 mg/kg/injection, schedule: Q04DX002 (ip), vehicle: Klucel (hydroxypropylcellulose) (HPC) 91 % of control | dose: 200.0 mg/kg/injection, schedule: Q04DX002 (ip), vehicle: Klucel (hydroxypropylcellulose) (HPC) 97 % of control | dose: 400.0 mg/kg/injection, schedule: Q04DX002 (ip), vehicle: Klucel (hydroxypropylcellulose) (HPC) 97 % of control

COc1ccccc1-n1c(O)c(N=Nc2ccc(Cl)cc2)c(=O)n(-c2ccccc2OC)c1=S
inactive: dose: 100.0 mg/kg/injection, schedule: Q01DX001 (ip), vehicle: Klucel (hydroxypropylcellulose) (HPC) 104 % of control | dose: 200.0 mg/kg/injection, schedule: Q01DX001 (ip), vehicle: Klucel (hydroxypropylcellulose) (HPC) 110 % of control

O[Si](O)([O][Sn]([c]1ccccc1)([c]1ccccc1)[c]1ccccc1)[O][Sn]([c]1ccccc1)([c]1ccccc1)[c]1ccccc1
inactive: dose: 25.0 mg/kg/injection, schedule: Q01DX009 (ip), vehicle: saline with Tween-80 106 % of control | [1] 96 % of control

CC(C)=NNc1ccnc(SCc2ccccc2)n1
inactive: [2] 96 % of control | [3] 97 % of control | [4] 102 % of control

COC(=O)C1(C)CCCC2c3cc4c(cc3CCC21)C(=O)CC(C)O4 (stereo not given)
inactive: dose: 400.0 mg/kg/injection, schedule: Q01DX001 (ip), vehicle: carboxymethylcellulose (CMC) 86 % of control

O=C(O)CCC(=O)NCCNC(c1ccccc1)(c1ccccc1)c1ccccc1
inactive: dose: 12.0 mg/kg/injection, schedule: Q01DX009 (ip), vehicle: saline 96 % of control | [5] 96 % of control | [1] 100 % of control | [6] 111 % of control | [7] 94 % of control | [8] 105 % of control

O=C1C=C(Nc2ccc([N+](=O)[O-])cc2)C(=O)c2ccccc21
inactive: dose: 75.0 mg/kg/injection, schedule: Q01DX001 (ip), vehicle: carboxymethylcellulose (CMC) 87 % of control | dose: 300.0 mg/kg/injection, schedule: Q01DX001 (ip), vehicle: carboxymethylcellulose (CMC) 89 % of control

Cc1cc(=O)c2ccccc2[nH]1
inactive: dose: 25.0 mg/kg/injection, schedule: Q04DX003 (ip), vehicle: saline 94 % of control | dose: 50.0 mg/kg/injection, schedule: Q04DX003 (ip), vehicle: saline 100 % of control | [6] 94 % of control and 96 % of control

CCCCCCCCCCCCCCCC(=O)OCC1OC(CO)(OC2OC(CO)C(O)C(O)C2O)C(O)C1O (stereo not given)
inactive: [9] 91 % of control | [2] 89 % of control | [10] 94 % of control | [3] 91 % of control | [4] 98 % of control

O=C(c1ccccc1)C1Cc2ccccc2C1=O (stereo not given)
inactive: [9] 100 % of control | [6] 102 % of control | [10] 114 % of control | [7] 102 % of control | dose: 400.0 mg/kg/injection, schedule: Q01DX009 (ip), vehicle: Klucel (hydroxypropylcellulose) (HPC) 97 % of control | [8] 102 % of control

Clc1ccc(COC(Cn2ccnc2)c2ccc(Cl)cc2Cl)cc1 (stereo not given)
inactive: dose: 25.0 mg/kg/injection, schedule: Q04DX002 (ip), vehicle: DMSO 93 % of control | dose: 50.0 mg/kg/injection, schedule: Q04DX002 (ip), vehicle: DMSO 93 % of control | dose: 100.0 mg/kg/injection, schedule: Q04DX002 (ip), vehicle: DMSO 97 % of control

C/C(=C1/c2ccccc2-c2n[nH]c(C)c21)S(=O)(=O)O
inactive: [11] 95 % of control | [12] 94 % of control | [13] 88 % of control | [14] 105 % of control | [15] 95 % of control | [16] 91 % of control

O=C1C2C(c3cc4ccccc4n31)N2c1ccccc1 (stereo not given)
inactive: dose: 0.75 mg/kg/injection, schedule: Q01DX001 (ip), vehicle: water 103 % of control | dose: 1.5 mg/kg/injection, schedule: Q01DX001 (ip), vehicle: water 103 % of control | dose: 3.0 mg/kg/injection, schedule: Q01DX001 (ip), vehicle: water 100 % of control | dose: 6.0 mg/kg/injection, schedule: Q01DX001 (ip), vehicle: water 106 % of control | dose: 12.0 mg/kg/injection, schedule: Q01DX001 (ip), vehicle: water 91 % of control | dose: 24.0 mg/kg/injection, schedule: Q01DX001 (ip), vehicle: water 106 % of control

Cc1cc(C(=O)CCl)c(CN2C(=O)c3ccccc3C2=O)c(=O)n1C
inactive: [11] 98 % of control | [12] 108 % of control | [13] 100 % of control | [14] 105 % of control | [15] 92 % of control | [16] 110 % of control

Clc1ccc(OCC2=NCCc3ccccc32)cc1
inactive: dose: 300.0 mg/kg/injection, schedule: Q01DX001 (ip), vehicle: saline 98 % of control | dose: 400.0 mg/kg/injection, schedule: Q01DX001 (ip), vehicle: saline 104 % of control

C=C1c2c(Cl)cccc2C(C)(CC)c2cccc(Cl)c21
inactive: dose: 75.0 mg/kg/injection, schedule: Q01DX001 (ip), vehicle: Klucel (hydroxypropylcellulose) (HPC) 96 % of control | dose: 75.0 mg/kg/injection, schedule: Q01DX009 (ip), vehicle: Klucel (hydroxypropylcellulose) (HPC) 94 % of control | dose: 150.0 mg/kg/injection, schedule: Q01DX001 (ip), vehicle: Klucel (hydroxypropylcellulose) (HPC) 98 % of control | dose: 150.0 mg/kg/injection, schedule: Q01DX009 (ip), vehicle: Klucel (hydroxypropylcellulose) (HPC) 96 % of control | dose: 300.0 mg/kg/injection, schedule: Q01DX001 (ip), vehicle: Klucel (hydroxypropylcellulose) (HPC) 95 % of control | dose: 300.0 mg/kg/injection, schedule: Q01DX009 (ip), vehicle: Klucel (hydroxypropylcellulose) (HPC) 99 % of control

Cc1n(Cc2ccccc2)cc[n+]1C
inactive: dose: 12.5 mg/kg/injection, schedule: Q01DX009 (ip), vehicle: saline 109 % of control and 119 % of control | dose: 12.5 mg/kg/injection, schedule: Q04DX002 (ip), vehicle: saline 100 % of control and 111 % of control | [5] 117 % of control and 119 % of control | dose: 25.0 mg/kg/injection, schedule: Q04DX002 (ip), vehicle: saline 100 % of control | [1] 93 % of control
